From PMC11111691, “Cystine-knot peptide inhibitors of HTRA1 bind to a cryptic pocket within the active site region” (Nature Communications, 2024)
Positions of bridges follow the written chain, without caps; N, C: chain ends. Residues, ends and D or L forms follow the SMILES beside them.

Columns and labels:
MDCK monolayer = test: MDCK trans-well cell permeability assay; assay type: in vitro ADME, canine; settings: MDCK trans-well, apical to basolateral, up to 50 µM, 16 h, mass spectrometry
Description: We carried out a cell permeability study using a MDCK trans-well assay, which is commonly
used at Genentech for permeability screening of compounds . This assay measures the flux of test
compound (Papp, apparent permeability) across a MDCK monolayer from the apical to the
basolateral compartment over a 16 h period.
sensitive mass spectrometry method .
10x10-6 cm/s and compounds with Papp values of <1x10-6 cm/s are considered to be of low
Protocol of permeability assay:
Experiments were carried out as described (Chen et al. Evaluating the utility of canine Mdr1 knockout
Madin-Darby canine kidney I cells in permeability screening and efflux substrate determination, Mol
Cells were seeded in 96-well Corning Transwell plates (PET membrane, 1 µm pore size) at 75,000 cells
per well and grown in DMEM media supplemented with 10% FBS, 1% pen-strep and 1x Glutamax at
37C, 5% CO2 for 48 h to ensure monolayer formation. Stock solutions of the three CKPs 1B3, 1D3-ENI
and 1G10-ENI were diluted in Hank's Balanced Salt solution containing 25 mM HEPES, pH 7.4 and 25
µM of the monolayer integrity marker lucifer yellow. CKPs at a concentration of 50 µM were added to
the apical (donor) chamber and the CKP the apparent permeability (Papp) was determined by quantifying
the amount of CKP in the basolateral (receiver) chamber after 16 h incubation at 37C, 5% CO2. The
samples from the basolateral chamber were supplemented with the experiment analytical internal standard
(100 nM propranolol in 50% ACN:50% water with 0.1% formic acid) and then injected in a Sciex Zeno
TOF 7600 mass spectrometer using TOF/MS mode.

HeLa cells = test: Cell toxicity assay (CellTiter-Glo), HeLa; assay type: cell-based
Description: (§1) reduction at the highest CKP concentration of 50 µM after 72 h (see results below). The absence of cell toxicity is likely due to the inability of the CKPs to penetrate cell membranes, which was experimentally determined in response to another reviewer. Due to space limitations we have not […]
(§2) Protocol of cell toxicity assay (Figure above):
(§3) HeLa cells or C32 melanoma cells were passaged in DMEM media supplemented with 10% FBS, 1% pen-strep and 1x Glutamax using standard culture conditions (5% CO2, 90% humidity at 37°C). At approximately 95% confluence cells were trypsinized, seeded onto 96-well plates (Corning) at 10,000 cells/well and grown for 24 h. Cells were then incubated with the CKPs 3B3, 1D3-ENI and 1G10-ENI (0, 0.6, 1.9, 5.6, 16.7 and 50 µM) at 37°C for 24 h or for 72h. As a positive control we used staurosporine (STS; 1µM). Cell viability was measured using the CellTiter-Glo luminescent cell viability assay (Promega) on an Envision Multilabel plate reader. Average of at least three independent experiments ± S.D. were plotted in Prism 10. Two-way ANOVA was performed on each dataset and compared to no drug samples and no significant viability reductions were observed, except for some treatments at the […]

C32 melanoma cells = test: Cell toxicity assay (CellTiter-Glo), C32; assay type: cell-based, human; settings: 0.6-50 µM CKP, 24 h and 72 h, at least three independent experiments
Description: as §1, §2, §3

HTRA3^PD/PDZ, HTRA3^FL = target: T1, HTRA3^PD/PDZ, HTRA3^FL (Homo sapiens, UniProt P83110); test: Fluorescence-quenched casein-BODIPY assay, HTRA3; assay type: biochemical; settings: 2 µM CKP (0.5 mM 7mer-ABP)
T1 construct: purchased Abcam (FL form); the PD/PDZ form was made in house in E. coli ab134450
Description: (§4) The fluorescence-quenched casein-BODIPY® assay (EnzCheck®, Thermo Fisher Scientific) was carried out in TNC buffer (50 mM Tris pH 8.0, 200 mM NaCl, 0.25% CHAPS) at 37 °C in 96-well black optical bottom plates (Nalge Nunc Int., Rochester, NY). Enzymes were incubated with CKPs or DMSO control for 15 min prior to addition of casein substrate. The reactant concentrations were: 30 nM HTRA1^FL, 30 nM HTRA1^PD/PDZ, 30 nM HTRA1^PD, 30 nM HTRA2^PD/PDZ, 30 nM HTRA3^FL, 100 nM HTRA3^PD/PDZ, 30 nM HTRA4^FL, 300 nM HTRA4^PD/PDZ, 2 µM CKP, 5 µg/ml casein substrate and 0.25% DMSO. For selectivity assays, 0.5 mM 7mer-ABP was used as positive control. The kinetics of substrate cleavage were measured at 37 °C on a SpectraMax M5 microplate reader (Molecular Devices) with excitation of 485 nm and emission of 530 nm for 30 min (HTRA1 and HTRA2) or 5 h (HTRA3 and HTRA4). The determined initial rates of cleavage were expressed as percent of control (DMSO control) after subtracting the baseline rates (without enzyme).

HTRA4^PD/PDZ, HTRA4^FL [1] = target: T2, HTRA4^PD/PDZ, HTRA4^FL (Homo sapiens, UniProt P83105); test: Fluorescence-quenched casein-BODIPY assay, HTRA4; assay type: biochemical; settings: 30 nM HTRA4^FL, 2 µM CKP (0.5 mM 7mer-ABP)
T2 construct: purchased Abcam (FL form); the PD/PDZ form was made in house in E. coli ab134444
T2 sequence (P83105 32-476): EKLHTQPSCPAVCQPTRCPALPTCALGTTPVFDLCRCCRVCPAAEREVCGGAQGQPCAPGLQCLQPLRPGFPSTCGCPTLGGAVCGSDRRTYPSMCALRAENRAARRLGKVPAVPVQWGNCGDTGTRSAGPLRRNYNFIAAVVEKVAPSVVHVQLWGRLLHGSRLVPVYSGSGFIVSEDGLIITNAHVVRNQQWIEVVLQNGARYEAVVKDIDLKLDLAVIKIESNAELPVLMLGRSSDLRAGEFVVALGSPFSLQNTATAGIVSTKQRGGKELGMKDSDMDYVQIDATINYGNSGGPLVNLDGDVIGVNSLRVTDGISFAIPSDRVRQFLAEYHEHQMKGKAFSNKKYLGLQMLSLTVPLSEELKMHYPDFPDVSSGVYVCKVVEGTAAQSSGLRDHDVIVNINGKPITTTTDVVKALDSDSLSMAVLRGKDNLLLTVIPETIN
Description: as §4

HTRA4^PD/PDZ, HTRA4^FL [2] = target: T3, HTRA4^PD/PDZ, HTRA4^FL (Homo sapiens, UniProt P83105); test: Fluorescence-quenched casein-BODIPY assay, HTRA4; assay type: biochemical; settings: 300 nM HTRA4^PD/PDZ, 2 µM CKP (0.5 mM 7mer-ABP)
T3 construct: purchased Abcam (FL form); the PD/PDZ form was made in house in E. coli ab134444
T3 sequence (P83105 153-476): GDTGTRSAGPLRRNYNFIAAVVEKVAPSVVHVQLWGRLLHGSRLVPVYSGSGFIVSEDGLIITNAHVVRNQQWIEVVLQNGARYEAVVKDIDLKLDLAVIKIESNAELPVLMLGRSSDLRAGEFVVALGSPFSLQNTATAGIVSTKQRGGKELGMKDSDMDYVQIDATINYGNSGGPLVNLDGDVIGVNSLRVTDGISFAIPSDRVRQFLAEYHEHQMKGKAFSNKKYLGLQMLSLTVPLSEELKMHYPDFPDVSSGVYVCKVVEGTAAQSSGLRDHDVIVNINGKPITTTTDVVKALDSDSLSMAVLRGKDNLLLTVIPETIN
Description: as §4

| Inhibition of HTRA3^FL, casein-BODIPY cleavage (% of control) (HTRA3^PD/PDZ, HTRA3^FL; 30 nM HTRA3^FL) | Inhibition of HTRA3^PD/PDZ, casein-BODIPY cleavage (% of control) (HTRA3^PD/PDZ, HTRA3^FL; 100 nM HTRA3^PD/PDZ) | Inhibition of HTRA4^FL, casein-BODIPY cleavage (% of control) (HTRA4^PD/PDZ, HTRA4^FL [1]) | Inhibition of HTRA4^PD/PDZ, casein-BODIPY cleavage (% of control) (HTRA4^PD/PDZ, HTRA4^FL [2]) | Compound | Cell permeability in the MDCK cell assay (MDCK monolayer) | Viability reduction, HeLa cells, 24 h (HeLa cells; 50 µM CKP, 24 h) [%] | Viability reduction, HeLa cells, 72 h (HeLa cells; 50 µM CKP, 72 h) [%] | Cell viability, HeLa cells (HeLa cells; 0.6-50 µM CKP, 24 h and 72 h, at least three independent experiments) | Cell viability, C32 melanoma cells (C32 melanoma cells) |
| --- | --- | --- | --- | --- | --- | --- | --- | --- | --- |
|  |  |  |  | CC[C@H](C)[C@H](NC(=O)[C@@H]1CCCN1C(=O)[C@H](CC(=O)O)NC(=O)[C@H](C)NC(=O)[C@@H](N)Cc1c[nH]cn1)C(=O)N[C@H]1CSSC[C@@H]2NC(=O)[C@H](Cc3ccccc3)NC(=O)[C@H](Cc3c[nH]c4ccccc34)NC(=O)[C@H](C)NC(=O)CNC(=O)[C@H](CO)NC(=O)[C@@H]3CSSC[C@@H](C(=O)NCC(=O)N4CCC[C@H]4C(=O)N[C@@H](Cc4ccc(O)cc4)C(=O)N[C@H](C(=O)NCC(N)=O)C(C)C)NC(=O)[C@H](CO)NC(=O)[C@H](Cc4c[nH]c5ccccc45)NC(=O)[C@H]([C@@H](C)O)NC(=O)[C@H](C)NC(=O)[C@H](Cc4ccc(O)cc4)NC(=O)[C@H](Cc4ccc(O)cc4)NC(=O)[C@H](CSSC[C@H](NC(=O)[C@@H]4CCCN4C(=O)[C@H](CCCCN)NC(=O)[C@H](CC(N)=O)NC1=O)C(=O)N[C@@H](CCCCN)C(=O)N[C@@H]([C@@H](C)O)C(=O)N[C@@H](Cc1c[nH]cn1)C(=O)N[C@@H](CC(=O)O)C(=O)N[C@@H](CC(=O)O)C(=O)N3)NC(=O)[C@H](C)NC(=O)[C@H](CCC(N)=O)NC2=O [3B3] (H-HADPICNKPCKTHDDCSGAWFCQACYYATWSCGPYVG-NH2; disulfide 6-22, 10-25, 16-32) | no detectable cell permeability | 9 | 13 | did not appreciably affect cell viability | did not appreciably affect cell viability |
| significantly inhibited | significantly inhibited | significantly inhibited | significantly inhibited | DPMFKLV-phosphonate [7mer-ABP] |  |  |  |  |  |
